Read-outs that look alike come from different tables or passages of the source. Bounds are passed on as bounds.

The values that follow come from patent publication US10653688B2, “6-(6-membered heteroaryl and aryl)isoquinolin-3-yl carboxamides and preparation and use thereof” (Samumed, LLC, priority 2017, dated 2020).

The target of one assay is recombinant GSK3β kinase (Homo sapiens (Human), UniProt P49841). The assay is described as follows: GSK3β kinase assay (Ser/Thr 09 peptide Z-lyte, FRET).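 Further: FRET read-out as coumarin over fluorescein emission ratio, compounds incubated one hour at room temperature, IC50 from dose-response curve fit.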 It counts as biochemical.
Assay [1] concerns Cyclin D1 phosphorylation at Threonine 286 (pCcnD1) over total Cyclin D1 in SH-SY5Y cells. The assay is described as follows: phosphoCcnD1 to total CcnD1 ratio (PTT) cell-based assay, western blot. The settings on record: Homo sapiens, 48 hours. Here is the method: Representative compounds were screened using the cell-based assay procedure for the ratio of signal of Cyclin D1 phosphorylation at Threonine 286 (pCcnD1) over the signal of total Cyclin D1 (CcnD1) (abbreviated: phosphoCcnD1 to total CcnD1 ratio, or PTT) as described below.
SH-SY5Y cells (human neuroblastoma, Sigma, Saint-Louis, Mo.) were cultured in 1:1 DMEM/F-12 medium supplemented with 15% FBS, 1% non-essential amino acid, and 1% penicillin/streptomycin.
SH-SY5Y cells were seeded at 1.0×10^5 cells in 1 mL per well in a 24-well plate. After cell adherence was confirmed, DMSO-resuspended Samumed compounds were dispensed to eight wells as a serial dilution from 10 μM to 4.6 nM final concentration in medium, or at 1.1 μM to 4.6 nM with particularly potent compounds. Cells were exposed to Samumed compounds for 48 hours in a 37° C. incubator.
Wells of compound-treated cells were visually checked for cell death before being washed with 500 μL per well of 1×DPBS supplemented with phosphatase inhibitor diluted to 1×. Cells were then lysed with 90 μL 1×RIPA buffer supplemented with phosphatase and protease inhibitors (each diluted to a final 1×). After scraping, 60 μL of cell lysate from each sample was used to dilute 4×LDS (ThermoFisher, NP0007) and 20×XT reducing agent (Bio-Rad, 1610792), each diluted to 1× final. All samples were then denatured via boiling at 95° C. Denatured cell sample lysates were directly tested for pCcnD1 and total CcnD1 signal by Western blot techniques and analysis. Specifically, denatured lysates were directly transferred to NuPAGE™ 4-12% Bis-Tris Midi Protein Gels, 26-well gels (ThermoFisher, WG1403BOX). Gels were transferred to […] nitrocellulose membranes via iBlot™ Transfer Stack, nitrocellulose, regular size (ThermoFisher, IB301031). Membranes were blocked with 1×TBS, 5% milk (Bio-Rad, 1706404XTU) before being probed for overnight with either anti-pCcnD1 primary antibody (Cell Signaling Technology, 2978S) or anti-total CcnD1 primary antibody (Cell Signaling Technology, 3300S) diluted 1:500 in 1×TBS-0.05% Tween-20, 3% milk. After overnight incubation in primary antibodies, membranes were washed profusely with 1×TBS-0.05% Tween-20 and probed for 1 hour with secondary anti-rabbit/HRP conjugate (Cell Signaling Technology, 7074S) diluted 1:1000 in 1×TBS-0.05% Tween-20, 3% milk. After incubation in secondary antibody, membranes were washed with 1×TBS-0.05% Tween-20.
Probed and washed membranes were developed for pCcnD1 or total CcnD1 signal with SuperSignal™ West Femto Maximum Sensitivity Substrate (ThermoFisher, 34096) using the ChemoDoc-It^2 (UVP) and related GelDocIt imaging software. Blots were then stripped, blocked, stained with anti-β-actin/HRP conjugate antibody (Cell Signaling Technology, 5125S), developed, and imaged for housekeeping β-actin protein control as previously described. Densitometry was measured with ImageJ (NIH) and signal was used to plot, draw the curves fitting, and determine the EC50 values in GraphPad Prism for tested Samumed compounds.

Assay [2] has as its system LL29 cells (primary human fibroblasts derived from IPF patients), α-smooth muscle actin. The assay is described as follows: Inhibition of fibrotic process: TGF-β1-treated primary human fibroblasts, αSMA staining.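 On all read-outs here: controls were TGF-β1-stimulated wells with DMSO vehicle as the positive reference and cells given DMSO alone as the negative reference.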 The assay is classed as cell-based. The settings on record: Homo sapiens, Fibroblast; for EC50: 96 h, TGF-β1 20 ng/mL, 4 days, % cells positive for αSMA.
Description: Representative compounds were screened using primary human fibroblasts (derived from IPF patients) treated with TGF-β1 to determine their ability to inhibit the fibrotic process.
Human Fibroblast Cell Culture:
Each compound was dissolved in DMSO as a 10 mM stock and used to prepare compound source plates. […] LL29 cells were plated at 1,500 cells/well in 70 μL/well F12 medium supplemented with 1% Fetal Bovine Serum. […] Wells treated with TGF-β1 and containing DMSO were used as positive control, and cells with only DMSO were negative control. Cells were incubated at 37° C. and 5% CO2 for 4 days. Following incubation for 4 days, SYTOX green nucleic acid stain (Life Technologies [Thermo Fisher Scientific]) was added to the wells at a final concentration of 1 μM and incubated at room temperature for 30 min. Cells were then fixed using 4% formaldehyde (Electron Microscopy Sciences), washed 3 times with PBS followed by blocking and permeabilization using 3% Bovine Serum Albumin (BSA; Sigma) and 0.3% Triton X-100 (Sigma) in PBS.
Assay [3] deals with IL-6 in human peripheral blood mononuclear cells (huPBMCs). The assay is described as follows: IL-6 inhibition in LPS-stimulated human peripheral blood mononuclear cells (HTRF). The assay is classed as cell-based. The settings on record: Homo sapiens, PBMC; for EC50: LPS 50 ng/mL, 22 hours, IL-6 HTRF; for inhibition at 10 µM: read-out: percent inhibition at 10 μM (given for EC50 >10 μM), LPS, IL-6, 10 μM. In a few lines: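 Compound-treated huPBMCs (1×10e6 cells/mL, 1% FBS-RPMI) were stimulated after 2 h with LPS (50 ng/mL) for another 22 h at 37° C. An anti-IL-6 HTRF pair reported IL-6 as the 665/620 nm ratio; activity relative to DMSO, EC50 by 4-parameter Levenberg-Marquardt fitting, duplicates.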
In general terms: In TR-FRET formats the signal depends on donor and acceptor labels being close together.

Assay [4] deals with recombinant DYRK1A kinase (Homo sapiens (Human), UniProt Q13627). Briefly: DYRK1A kinase assay (Ser/Thr 18 peptide Z-lyte, FRET).
Where [5] appears, read: GSK3β kinase, head says EC50, method says IC50, ATP 46 μM.
[6] abbreviates: DYRK1A kinase, head says EC50, method says IC50, ATP 30 μM.

Sequence of recombinant GSK3β kinase (P49841 whole entry): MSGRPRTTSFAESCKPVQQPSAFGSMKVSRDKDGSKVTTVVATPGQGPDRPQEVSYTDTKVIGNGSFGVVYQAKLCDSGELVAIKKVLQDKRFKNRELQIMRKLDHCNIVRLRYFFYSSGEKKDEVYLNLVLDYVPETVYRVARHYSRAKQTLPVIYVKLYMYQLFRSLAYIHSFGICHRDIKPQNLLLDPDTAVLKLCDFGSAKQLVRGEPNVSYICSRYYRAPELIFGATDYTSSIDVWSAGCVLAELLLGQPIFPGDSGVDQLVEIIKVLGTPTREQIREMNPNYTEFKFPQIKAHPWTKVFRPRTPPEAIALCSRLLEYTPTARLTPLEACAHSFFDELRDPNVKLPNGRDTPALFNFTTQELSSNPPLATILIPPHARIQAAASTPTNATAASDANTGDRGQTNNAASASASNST

Regarding `CN1CCC(C(=O)Nc2cc3cc(-c4cncc(F)c4)ccc3cn2)CC1` [Compound 19, N-(6-(5-Fluoropyridin-3-yl)isoquinolin-3-yl)-1-methylpiperidine-4-carboxamide], the EC50 (as a rule, the concentration needed to bring the measured effect to its halfway point) on recombinant GSK3β kinase came out at 1800 nM; in assay [1] it was 140 nM; in assay [2], 1210 nM; in assay [3], 9150 nM; in assay [4] it was 10 nM.

Turning to `CN1CCN(CC(=O)Nc2cc3cc(-c4cccnc4)c(F)cc3cn2)CC1` [Compound 145, N-(7-Fluoro-6-(pyridin-3-yl)isoquinolin-3-yl)-2-(4-methylpiperazin-1-yl) acetamide], the EC50 is 2890 nM on recombinant GSK3β kinase (setting [5]); 48 nM in assay [1]; 6520 nM in assay [2]; more than 10000 nM in assay [3]; 13 nM in assay [4] (setting [6]). The inhibition – broadly, the relative decrease from the control value, in per cent – at 10 µM in assay [3] was determined as 5.9%.

With `O=C(Nc1cc2cc(-c3cncc(CN4CCC(O)CC4)c3)ccc2cn1)C1CC1` [Compound 53, N-(6-(5-((4-Hydroxypiperidin-1-yl)methyl)pyridin-3-yl)isoquinolin-3-yl) cyclopropanecarboxamide], the EC50 on recombinant GSK3β kinase was determined as 175 nM; in assay [1] it was 30 nM; in assay [2], 3070 nM; in assay [3], 3250 nM; in assay [4], 2 nM.

In the case of `O=C(Nc1cc2cc(-c3cccnc3)ccc2cn1)C1CC1` [Compound 6, N-(6-(Pyridin-3-yl)isoquinolin-3-yl)cyclopropanecarboxamide], the EC50 was 56 nM on recombinant GSK3β kinase (setting [5]); 276 nM in assay [1]; 197 nM in assay [2]; 1030 nM in assay [3]; 2 nM in assay [4] (setting [6]).

Consider `O=C(Cn1ccnc1)Nc1cc2cc(-c3cccnc3)ccc2cn1` [Compound 15, 2-(1H-Imidazol-1-yl)-N-(6-(pyridin-3-yl)isoquinolin-3-yl)acetamide], for which the EC50 at recombinant GSK3β kinase (setting [5]) worked out at 97 nM; in assay [1], 127 nM; in assay [2], 1520 nM; in assay [3], 4820 nM; in assay [4] (setting [6]) it was 5 nM.

As for `O=C(CN1CCOCC1)Nc1cc2cc(-c3cccnc3)c(F)cc2cn1` [Compound 144, N-(7-Fluoro-6-(pyridin-3-yl)isoquinolin-3-yl)-2-morpholinoacetamide], the EC50 on recombinant GSK3β kinase (setting [5]) is 1250 nM; in assay [1], 298 nM; in assay [2], 4600 nM; in assay [3] it was more than 10000 nM; in assay [4] (setting [6]) it was 9 nM. Further, in assay [3], the inhibition at 10 µM came out at 9.4%.

Take `Cc1cc2ncc(-c3ccc4cnc(NC(=O)c5ccnc(N6CCN(C)CC6)c5)cc4c3)cc2[nH]1` [Compound 135, N-(6-(2-Methyl-1H-pyrrolo[3,2-b]pyridin-6-yl)isoquinolin-3-yl)-2-(4-methylpiperazin-1-yl)isonicotinamide]: the EC50 at recombinant GSK3β kinase (setting [5]) is more than 10000 nM; in assay [1], 37 nM; in assay [2], 2480 nM; in assay [3], 2110 nM; in assay [4] (setting [6]), 15 nM.

Regarding `O=C(Nc1cc2cc(-c3cncc(CN4CCOCC4)c3)ccc2cn1)C1CC1` [Compound 57, N-(6-(5-(Morpholinomethyl)pyridin-3-yl)isoquinolin-3-yl) cyclopropanecarboxamide], the EC50 on recombinant GSK3β kinase (setting [5]) is 180 nM; in assay [1] it was 193 nM; in assay [2] it was 2160 nM; in assay [3], 3800 nM; in assay [4] (setting [6]), 4 nM.

As for `Cc1cncc(-c2ccc3cnc(NC(=O)CN4CCOCC4)cc3c2)c1` [Compound 146, N-(6-(5-Methylpyridin-3-yl)isoquinolin-3-yl)-2-morpholinoacetamide], the EC50 was 623 nM on recombinant GSK3β kinase (setting [5]); 68 nM in assay [1]; more than 10000 nM in assay [2]; more than 10000 nM in assay [3]; 9 nM in assay [4] (setting [6]). Also, the inhibition at 10 µM in assay [2] (read-out: percent inhibition at 10 μM (given for EC50 >10 μM), TGF-β1, αSMA, 10 μM) worked out at 23.8%; in assay [3], 0%.

Regarding `[2H]c1nc([2H])c(-c2ccc3cnc(NC(=O)CN4CCCC4)cc3c2)c([2H])c1[2H]` [Compound 60, N-(6-(pyridin-3-yl-d4)isoquinolin-3-yl)-2-(pyrrolidin-1-yl)acetamide], the EC50 turned out to be 404 nM on recombinant GSK3β kinase; 250 nM in assay [1]; 2600 nM in assay [2]; 9090 nM in assay [3]; 10 nM in assay [4].
